# These antisense oligonucleotides have a phosphorothioate backbone; sugars and methylation of C are not fully specified.
# Biological target: PLA2G4A
# Settings: ASO
# Note: test concentration or dose not given here.
row,Sequence,remaining target (mRNA or protein) (fraction of control)
1,AGCCCACTGTCCACTACA,0.2
2,TAAATGTGAGCCCACTGT,≥ 1
3,TGAGCCCACTGTCCACTA,0.26
4,AGAGGTAAAGGGCATTGT,≥ 1
5,CAGAAACGCCCAAAACTC,0.43
6,CCCCACCTGAACCCAATA,≥ 1
7,CACTCCTTCAGCCCTTCC,≥ 1
8,AAACGCCCAAAACTCTGT,≥ 1
9,CTCCTTCAGCCCTTCCCG,≥ 1
10,TGAGATTCAAGCCCAGCA,0.41
11,CACTGCCCCAGACACCCA,≥ 1
12,AAGGGATACGGCAGGTTA,≥ 1
13,CCCCTTTGTCACTTTGGT,0.33
14,CTTGTTCATTTTAGCCCA,≥ 1
15,ATGTGAGCCCACTGTCCA,≥ 1
16,AAAGAGGTAAAGGGCATT,≥ 1
17,AGTGGATGATGGTTGGGC,≥ 1
18,GAAAAGAGGTAAAGGGCA,≥ 1
19,GGTTGGGCAATCTTTCTC,≥ 1
20,AAGTCGGGAGCCATAAAA,0.87

row,Sequence,remaining target (mRNA or protein) (fraction of control)
1,ATCAAGGGATACGGCAGG,0.51
2,CATTTTAGCCCACTTTTC,≥ 1
3,ATAAGTCGGGAGCCATAA,0.98
4,CCAAATAAGTCGGGAGCC,0.09
5,GTTCATTTTAGCCCACTT,≥ 1
6,ACCAGAAACGCCCAAAAC,0.21
7,TTGTGAACCAGAAACGCC,0.08
8,ATAGCACTCCTTCAGCCC,≥ 1
9,AAATCGTAGGTCTGGGCA,≥ 1
10,GATGGTTGGGCAATCTTT,≥ 1
11,GAACCAGAAACGCCCAAA,≥ 1
12,AGGCCATTATCATACGAT,≥ 1
13,AGCACTCCTTCAGCCCTT,0.29
14,GTGAACCAGAAACGCCCA,≥ 1
15,TTTAGCCCACTTTTCTGC,0.07
16,AAATAAGTCGGGAGCCAT,≥ 1
17,TGCCCCAGACACCCATTA,0.88
18,TCGGGAGCCATAAAAGTA,≥ 1
19,GATGATGGTTGGGCAATC,≥ 1
20,GCCCAAAACTCTGTTGAA,0

# Biological target: SMAD1
# Settings: ASO
row,Sequence,remaining target (mRNA or protein) (fraction of control)
1,CAGCCTGCCATCCAGAGA,0.46
2,TGAAACCATCCACCAACA,0.3
3,GTAGGTGCTGCTGCTGCT,0.49
4,ATGCAAAAGGACAGCAGA,0.57
5,ACAGTAGTAGGATGAAAT,0.41
6,TGTTTGTGTCCATCGGCT,0.47
7,GCAGCTCAAGGCCTTTTC,0.58
8,AAGGGCTTCCTGGGTCTG,0.53
9,GTCCAGAAGAGTAGAAAT,0.44
10,TTTACAGAGAAGTCTCTT,≥ 1
11,AAAGATGAACTCCTTTTC,0.65
12,CCTCCACTCCTCAGCTGC,0.5
13,TTGTTTAAATTTCTGAAT,0.5
14,TCGCCCTGTTTCCACCCA,0.1
15,TGCTACTGTCACTAAGGC,0.12
16,TTTGTCCTAAGTTACGGA,0.64
17,GAGCCGCTCGGCCTCTCC,0.23
18,GCTGGACTTGTAAAGGAA,0.57

row,Sequence,remaining target (mRNA or protein) (fraction of control)
1,CATAAGCAACCGCCTGAA,0.57
2,CCGCCCGCCTGCTTTCTC,0.12
3,AGTGAGGAAACGGGTGGC,0.28
4,TCCTTCTGCTTGGAACCA,0.3
5,CCCACACGATTGTTGAGC,0.35
6,CTGAAGATCGGGCCAGCG,0.52
7,AGCATTCCAGTGGTTTTA,0.31
8,TCCATGGTTCACAGACTG,0.2
9,TAACATTGGAGAGCAGCC,0.29
10,TGCTAGTAACATCCTGGC,0.25
11,CAGATGAAATAGGATTAT,0.55
12,CCTCAGCTGCCAATACCC,0.47
13,TTCACCAAAGCATCAACA,0.18
14,TGGATATGGTGAAATAAA,0.83
15,AGTGGCGTTGAGTGGCAT,0.75
16,AAATGACATGAGGCAGTC,0.54
17,ATTGATCTGGTCGCGCTG,0.69

# Biological target: EGR1
# Settings: ASO
row,Sequence,remaining target (mRNA or protein) (fraction of control)
1,AACGGAACAACACTCTGA,≥ 1
2,GGTGAAGAACTTGGACAT,≥ 1
3,CCTGCGGCGGCGGAAGCT,≥ 1
4,GTTTGATGAGCTGGGACT,≥ 1
5,GGGCGAGTGAGGAAAGGA,0.63
6,TGGGTGCAGGCTCCAGGG,≥ 1
7,CTCGCCCGTGTCCGCCTG,≥ 1
8,GGTAGGAAGAGAGAGAGG,≥ 1
9,TCGAGTGGTTTGGCTGGG,≥ 1
10,TGCTGACCTGGGCCGGGA,≥ 1
11,CTCACTAGGCCACTGACC,≥ 1
12,AGAGGATCACCATTGGTT,≥ 1
13,GATGTCAGGAAAAGACTC,≥ 1
14,ACTCGATTTTCTAGCATT,≥ 1
15,TCGCTGCGGCTGAAGTTG,≥ 1
16,GGAAGGGCTTCTGGTCTG,≥ 1
17,TGCGGATGTGGCGGGTGA,≥ 1
18,TCTGCTTTCTTGTCCTTC,≥ 1
19,CGGCAGGGTAGGCAGGAG,0.56
20,CATGGCACAGACACTGTA,≥ 1
21,TCTCCTCCTCCTGTCCTT,≥ 1
22,TGCTGTCGTTGGATGGCA,≥ 1
23,CGCAGGCGAAGGGCTTTT,≥ 1
24,GAGAGGAGAAGGAGGTGG,≥ 1
25,GGAATTGGCTCTGAGAAC,≥ 1
26,CCCCGCCGCCTCCACCGC,0.38

# Source: the OligoGym collection
